In US8871753B2, “Macrocyclic compounds and their use as kinase inhibitors” (Incyte Corporation, priority 2008, dated 2014):
Counter-ions that a name gives are not always drawn. Like-named read-outs stand apart in the source and are kept apart here.

What was measured:
Assay type in all cases: biochemical
[1] = molecular target: T1, human JAK2 (a.a. 828-1132) (Homo sapiens, UniProt O60674); test: In vitro JAK kinase assay (HTRF, phosphorylation of a biotinylated peptide), JAK2
T1 construct: JAK2 (a.a. 828-1132); His tag (N); made in house; host or cells: insect cells (baculovirus)
T1 sequence (O60674 828-1132): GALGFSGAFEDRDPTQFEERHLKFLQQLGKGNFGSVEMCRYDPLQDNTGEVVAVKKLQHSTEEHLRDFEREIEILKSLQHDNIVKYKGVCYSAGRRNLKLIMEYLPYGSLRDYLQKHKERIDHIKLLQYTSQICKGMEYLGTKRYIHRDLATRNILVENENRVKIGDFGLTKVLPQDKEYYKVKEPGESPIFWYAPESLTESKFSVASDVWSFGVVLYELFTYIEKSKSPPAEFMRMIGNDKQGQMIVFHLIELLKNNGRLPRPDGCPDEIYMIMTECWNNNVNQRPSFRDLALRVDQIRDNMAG
How it was run: (§1)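 Phosphorylation of a biotinylated peptide by the JAK kinase domain, detected by HTRF with Eu-Py20 and SA-APC. ATP was 90 μM for JAK1, 30 μM for JAK2 and 3 μM for JAK3. Reactions ran 1 h at room temperature and were stopped with EDTA, followed by 40 min antibody binding.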

[2] = molecular target: T2, human JAK1 (a.a. 837-1142) (Homo sapiens, UniProt P23458); test: In vitro JAK kinase assay (HTRF, phosphorylation of a biotinylated peptide), JAK1; details: read-out: JAK1 IC50
T2 construct: human JAK1 (a.a. 837-1142); His tag (N); made in house; host or cells: insect cells (baculovirus)
T2 sequence (P23458 849-1154): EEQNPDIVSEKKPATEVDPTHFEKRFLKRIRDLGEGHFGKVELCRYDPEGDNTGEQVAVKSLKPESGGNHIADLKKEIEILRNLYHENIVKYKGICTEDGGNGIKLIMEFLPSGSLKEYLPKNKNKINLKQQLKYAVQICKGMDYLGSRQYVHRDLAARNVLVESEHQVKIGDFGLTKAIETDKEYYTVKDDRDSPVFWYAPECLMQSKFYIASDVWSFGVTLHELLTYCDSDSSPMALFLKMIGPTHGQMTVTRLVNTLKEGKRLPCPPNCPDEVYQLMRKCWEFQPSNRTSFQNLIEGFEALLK
How it was run: as §1

[3] = molecular target: T3, human JAK3 (a.a. 781-1124) (Homo sapiens, UniProt P52333); test: In vitro JAK kinase assay (HTRF, phosphorylation of a biotinylated peptide), JAK3
T3 construct: JAK3 (a.a. 781-1124); His tag (N); made in house; host or cells: insect cells (baculovirus)
T3 sequence (P52333 781-1124): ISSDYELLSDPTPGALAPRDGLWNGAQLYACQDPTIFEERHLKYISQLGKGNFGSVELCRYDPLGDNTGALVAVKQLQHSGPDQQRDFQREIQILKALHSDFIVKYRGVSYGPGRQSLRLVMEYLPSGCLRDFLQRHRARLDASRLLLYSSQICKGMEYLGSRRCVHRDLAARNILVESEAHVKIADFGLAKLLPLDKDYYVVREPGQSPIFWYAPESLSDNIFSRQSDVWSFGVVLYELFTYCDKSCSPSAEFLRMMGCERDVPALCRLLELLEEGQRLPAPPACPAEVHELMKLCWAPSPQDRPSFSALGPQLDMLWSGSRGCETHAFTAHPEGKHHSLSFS
How it was run: as §1

TYK2 = TYK2 (Homo sapiens, UniProt P29597); test: TYK2 kinase inhibition (Table A1)
TYK2, sequence (P29597 whole entry): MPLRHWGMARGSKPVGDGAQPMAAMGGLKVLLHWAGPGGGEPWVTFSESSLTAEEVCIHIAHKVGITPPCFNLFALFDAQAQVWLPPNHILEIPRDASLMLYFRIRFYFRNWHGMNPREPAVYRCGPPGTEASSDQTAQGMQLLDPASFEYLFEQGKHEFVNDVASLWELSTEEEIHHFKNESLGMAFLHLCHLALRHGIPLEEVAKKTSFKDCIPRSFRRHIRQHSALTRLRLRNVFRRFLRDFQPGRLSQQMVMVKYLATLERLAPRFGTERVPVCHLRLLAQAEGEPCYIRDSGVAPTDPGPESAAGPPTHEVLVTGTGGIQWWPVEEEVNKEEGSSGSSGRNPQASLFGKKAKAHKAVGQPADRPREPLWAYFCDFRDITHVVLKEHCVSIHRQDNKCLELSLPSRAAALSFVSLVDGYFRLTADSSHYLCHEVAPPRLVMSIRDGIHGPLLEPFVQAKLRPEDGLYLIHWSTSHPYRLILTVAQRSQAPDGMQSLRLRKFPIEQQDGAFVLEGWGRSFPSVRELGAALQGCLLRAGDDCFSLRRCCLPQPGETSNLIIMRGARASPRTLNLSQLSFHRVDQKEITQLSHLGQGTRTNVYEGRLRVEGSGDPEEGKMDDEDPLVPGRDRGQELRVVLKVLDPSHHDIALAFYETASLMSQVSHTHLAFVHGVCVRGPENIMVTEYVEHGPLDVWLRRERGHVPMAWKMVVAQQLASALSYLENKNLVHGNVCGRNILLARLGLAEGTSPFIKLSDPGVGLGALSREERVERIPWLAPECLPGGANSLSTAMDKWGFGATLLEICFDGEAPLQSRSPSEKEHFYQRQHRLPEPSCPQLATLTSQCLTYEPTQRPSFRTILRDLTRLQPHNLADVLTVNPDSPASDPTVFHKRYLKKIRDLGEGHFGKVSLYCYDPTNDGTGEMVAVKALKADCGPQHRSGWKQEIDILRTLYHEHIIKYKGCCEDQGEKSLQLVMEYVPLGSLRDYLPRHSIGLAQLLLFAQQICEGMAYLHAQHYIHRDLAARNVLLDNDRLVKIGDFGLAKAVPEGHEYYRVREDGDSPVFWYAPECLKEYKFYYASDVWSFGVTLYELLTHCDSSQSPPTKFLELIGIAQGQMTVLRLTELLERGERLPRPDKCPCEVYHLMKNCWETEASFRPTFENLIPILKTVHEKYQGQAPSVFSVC

[4] = molecular target: T4, Recombinant Human Anaplastic Lymphoma Kinase (Homo sapiens, UniProt Q9UM73); test: ALK HTRF kinase assay
T4 construct: purchased Invitrogen, Carlsbad, Calif
T4 sequence (Q9UM73 19-1620): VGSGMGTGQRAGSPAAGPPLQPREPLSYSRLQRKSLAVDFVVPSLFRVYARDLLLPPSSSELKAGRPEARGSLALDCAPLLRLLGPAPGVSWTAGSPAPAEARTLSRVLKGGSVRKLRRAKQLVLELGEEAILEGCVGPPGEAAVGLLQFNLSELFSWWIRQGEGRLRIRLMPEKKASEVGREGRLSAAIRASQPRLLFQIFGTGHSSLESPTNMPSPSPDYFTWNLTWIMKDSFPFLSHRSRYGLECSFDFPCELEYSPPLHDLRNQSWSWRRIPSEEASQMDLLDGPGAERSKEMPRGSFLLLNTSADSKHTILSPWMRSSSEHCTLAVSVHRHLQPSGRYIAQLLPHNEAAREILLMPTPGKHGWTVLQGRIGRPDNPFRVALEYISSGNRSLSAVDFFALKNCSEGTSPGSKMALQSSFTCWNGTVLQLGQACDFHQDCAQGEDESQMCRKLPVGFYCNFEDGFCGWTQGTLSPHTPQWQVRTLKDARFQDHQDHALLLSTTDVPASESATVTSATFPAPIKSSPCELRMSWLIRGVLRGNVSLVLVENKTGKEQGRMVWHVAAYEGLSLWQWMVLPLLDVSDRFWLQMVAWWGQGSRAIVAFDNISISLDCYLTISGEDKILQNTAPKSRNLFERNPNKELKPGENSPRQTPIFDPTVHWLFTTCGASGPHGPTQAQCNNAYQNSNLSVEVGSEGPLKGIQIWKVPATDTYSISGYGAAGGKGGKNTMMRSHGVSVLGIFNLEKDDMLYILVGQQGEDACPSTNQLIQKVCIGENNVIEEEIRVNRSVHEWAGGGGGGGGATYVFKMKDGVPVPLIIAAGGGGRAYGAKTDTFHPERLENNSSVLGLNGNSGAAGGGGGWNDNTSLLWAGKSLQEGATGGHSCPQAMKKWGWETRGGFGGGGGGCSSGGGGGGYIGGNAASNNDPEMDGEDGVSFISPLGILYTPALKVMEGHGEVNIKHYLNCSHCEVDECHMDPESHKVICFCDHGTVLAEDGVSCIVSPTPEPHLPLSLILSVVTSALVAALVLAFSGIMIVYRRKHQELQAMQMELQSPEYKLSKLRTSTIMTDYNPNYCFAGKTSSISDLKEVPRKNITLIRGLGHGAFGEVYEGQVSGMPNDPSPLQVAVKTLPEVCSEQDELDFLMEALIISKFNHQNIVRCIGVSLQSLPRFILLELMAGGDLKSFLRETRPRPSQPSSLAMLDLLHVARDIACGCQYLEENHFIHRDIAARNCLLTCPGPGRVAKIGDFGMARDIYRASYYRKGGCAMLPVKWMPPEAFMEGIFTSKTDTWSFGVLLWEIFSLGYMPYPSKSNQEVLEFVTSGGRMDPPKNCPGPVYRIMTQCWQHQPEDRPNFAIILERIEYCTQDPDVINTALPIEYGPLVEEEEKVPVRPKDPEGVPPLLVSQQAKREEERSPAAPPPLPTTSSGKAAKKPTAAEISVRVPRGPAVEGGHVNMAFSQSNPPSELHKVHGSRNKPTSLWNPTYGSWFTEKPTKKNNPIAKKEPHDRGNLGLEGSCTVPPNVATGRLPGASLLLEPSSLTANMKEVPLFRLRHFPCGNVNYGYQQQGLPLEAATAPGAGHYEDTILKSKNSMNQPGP
How it was run: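 TR-FRET read-out (Eu anti-pTyr antibody + streptavidin-APC) of biotin-peptide phosphorylation by recombinant human enzyme; IC50 by sigmoidal fit with top/bottom baselines and Hill slope.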

[5] = method AA1 (30 μM ATP) or AA2 (1000 μM ATP), not stated per value
[6] = method AA1 (90 μM ATP) or AA2 (1000 μM ATP), not stated per value
[7] = method AA1 (3 μM ATP) or AA2 (1000 μM ATP), not stated per value
[8] = compound at 500 nM or 1 mM, 90 μM ATP
[9] = compound at a concentration of 500 nM or 1 mM (not specified), cells shown as percentage

Compound: Clc1cnc2nc1Nc1cccc(c1)OCCc1cc(cc(-c3ccncc3)c1)N2 [Example D25, 6-Chloro-19-pyridin-4-yl-14-oxa-2,4,8,23-tetraazatetracyclo[15.3.1.1(3,7).1(9,13)]tricosa-1(21),3(23),4,6,9(22),10,12,17,19-nonaene bis(trifluoroacetate)]
- IC50 ([1]; Table D1): 0.3 nM
- IC50 ([2]; Table D1): 1.1 nM
- IC50 ([3]; Table D1): 8.8 nM
- IC50 (TYK2; Table D1): 2.1 nM
- IC50 ([4]; Table D1, 90 μM ATP): 110 nM

Compound: Cc1oncc1S(=O)(=O)N1CCC(CC(=O)Nc2ccc3cc2CCc2cncc(c2)Nc2ncc(Cl)c(n2)N3)CC1 [Example A200, N-[6-Chloro-2,4,8,18,22-pentaazatetracyclo[14.3.1.1(3,7).1(9,13)]docosa-1(20),3(22),4,6,9(21),10,12,16,18-nonaen-12-yl]-2-{1-[(5-methylisoxazol-4-yl)sulfonyl]piperidin-4-yl}acetamide bis(trifluoroacetate)]
- IC50 [1, 5]: 101 nM
- IC50 [2, 6]: 8.5 nM
- IC50 [3, 7]: > 200 nM
- IC50 (TYK2): > 200 nM
- ALK % of inhibition at a concentration of 500 nM or 1 mM [4, 8]: 25%

Compound: O=C(Nc1ccc2cc1CCc1cccc(c1)Nc1ncc(Cl)c(n1)N2)c1ccccc1Cl [Example B41, 2-Chloro-N-[6-chloro-2,4,8,22-tetraazatetracyclo[14.3.1.1(3,7).1(9,13)]docosa-1(20),3(22),4,6,9(21),10,12,16,18-nonaen-12-yl]benzamide hydrochloride]
- IC50 ([1]; Table B1): 0.63 nM
- IC50 ([2]; Table B1): 1.7 nM
- IC50 ([3]; Table B1): 6.5 nM
- IC50 (TYK2; Table B1): 2.3 nM
- IC50 ([4]; Table B1, cells without percent sign): 140 nM

Compound: Clc1cnc2nc1Nc1cccc(c1)CCc1cccc(c1)N2 [Example A2, 6-Chloro-2,4,8,22-tetraazatetracyclo[14.3.1.1(3,7).1(9,13)]docosa-1(20),3(22),4,6,9(21),10,12,16,18-nonaene trifluoroacetate]
- IC50 [1, 5]: 9.3 nM
- IC50 [2, 6]: 12 nM
- IC50 [3, 7]: 26 nM
- IC50 (TYK2): 35 nM
- IC50 ([4]; 90 μM ATP): 657 nM

Compound: Clc1cnc2nc1Nc1cccc(c1)SCc1cccc(c1)N2 [Example D1, 6-Chloro-14-thia-2,4,8,22-tetraazatetracyclo[14.3.1.1(3,7).1(9,13)]docosa-1(20),3(22),4,6,9(21),10,12,16,18-nonaene trifluoroacetate]
- IC50 ([1]; Table D1): 9.6 nM
- IC50 ([2]; Table D1): 13 nM
- IC50 ([3]; Table D1): 16 nM
- IC50 (TYK2; Table D1): 14 nM
- IC50 ([4]; Table D1, 90 μM ATP): 620 nM

Compound: Cc1noc(C)c1C(=O)N1CC[C@H](NC(=O)Nc2ccc3cc2CCc2cncc(c2)Nc2ncc(Cl)c(n2)N3)C1 [Example B274, N-[6-chloro-2,4,8,18,22-pentaazatetracyclo[14.3.1.1(3,7).1(9,13)]docosa-1(20),3(22),4,6,9(21),10,12,16,18-nonaen-12-yl]-N′-{(3S)-1-[(3,5-dimethylisoxazol-4-yl)carbonyl]pyrrolidin-3-yl}urea bis(trifluoroacetate)]
- IC50 ([1]; Table B1): 192 nM
- IC50 ([2]; Table B1): 60 nM
- IC50 ([3]; Table B1): > 10000 nM
- IC50 (TYK2; Table B1): 325 nM
- ALK % of inhibition at a concentration of 500 nM or 1 mM [4, 9]: 18%

Compound: CCNC(=O)N1CCC(C(=O)Nc2ccc3cc2CCc2cccc(c2)Nc2ncc(Cl)c(n2)N3)CC1 [Example A59, N(4)-[6-Chloro-2,4,8,22-tetraazatetracyclo[14.3.1.1(3,7).1(9,13)]docosa-1(20),3(22),4,6,9(21),10,12,16,18-nonaen-12-yl]-N(1)-ethylpiperidine-1,4-dicarboxamide trifluoroacetate]
- IC50 [1, 5]: 6.9 nM
- IC50 [2, 6]: 26 nM
- IC50 [3, 7]: 19 nM
- IC50 (TYK2): 15 nM
- ALK % of inhibition at a concentration of 500 nM or 1 mM [4, 8]: 39%

Compound: O=C(Nc1cc2cc(c1)OCCSc1cccc(c1)Nc1nc(ncc1Cl)N2)c1ccc2occc2c1 [Example D61, N-[6-Chloro-17-oxa-14-thia-2,4,8,24-tetraazatetracyclo[16.3.1.1(3,7).1(9,13)]tetracosa-1(22),3(24),4,6,9(23),10,12,18,20-nonaen-20-yl]-1-benzofuran-5-carboxamide trifluoroacetate]
- IC50 ([1]; Table D1): 2.1 nM
- IC50 ([2]; Table D1): 18 nM
- IC50 ([3]; Table D1): 41 nM
- IC50 (TYK2; Table D1): 8 nM
- IC50 ([4]; Table D1, 90 μM ATP): > 10000 nM

Compound: Clc1cnc2nc1Nc1cccc(c1)SCCNc1cccc(c1)N2 [Example D80, 6-Chloro-14-thia-2,4,8,17,24-pentaazatetracyclo[16.3.1.1(3,7).1(9,13)]tetracosa-1(22),3(24),4,6,9(23),10,12,18,20-nonaene bis(trifluoroacetate)]
- IC50 ([1]; Table D1): 4.9 nM
- IC50 ([2]; Table D1): 7.4 nM
- IC50 ([3]; Table D1): 23 nM
- IC50 (TYK2; Table D1): 8.8 nM
- IC50 ([4]; Table D1, 90 μM ATP): 570 nM

Compound: O=C1Cc2cccc(c2)Nc2nc(ncc2Cl)Nc2cccc(c2)N1 [Example C11, 6-Chloro-2,4,8,16,23-pentaazatetracyclo[15.3.1.1(3,7).1(9,13)]tricosa-1(21),3(23),4,6,9(22),10,12,17,19-nonaen-15-one trifluoroacetate]
- IC50 [1]: > 1000 nM
- IC50 [2]: > 1000 nM
- IC50 [3]: > 1000 nM
- IC50 (TYK2): > 1000 nM
- IC50 [4]: > 10000 nM

Compound: O=S1(=O)Cc2cccc(c2)Nc2nc(ncc2Cl)Nc2cccc1c2 [Example D4, 6-Chloro-15-thia-2,4,8,22-tetraazatetracyclo[14.3.1.1(3,7).1(9,13)]docosa-1(20),3(22),4,6,9(21),10,12,16,18-nonaene 15,15-dioxide trifluoroacetate]
- IC50 ([1]; Table D1): 16 nM
- IC50 ([2]; Table D1): 91 nM
- IC50 ([3]; Table D1): 25 nM
- IC50 (TYK2; Table D1): 50 nM
- IC50 ([4]; Table D1, 90 μM ATP): 774 nM

Compound: O=C(CC1CCN(S(=O)(=O)c2ccccc2Cl)CC1)Nc1ccc2cc1CCc1cncc(c1)Nc1ncc(Cl)c(n1)N2 [Example A223, N-[6-Chloro-2,4,8,18,22-pentaazatetracyclo[14.3.1.1(3,7).1(9,13)]docosa-1(20),3(22),4,6,9(21),10,12,16,18-nonaen-12-yl]-2-{1-[(2-chlorophenyl)sulfonyl]piperidin-4-yl}acetamide bis(trifluoroacetate)]
- IC50 [1, 5]: 90 nM
- IC50 [2, 6]: 5 nM
- IC50 [3, 7]: > 400 nM
- IC50 (TYK2): > 400 nM
- ALK % of inhibition at a concentration of 500 nM or 1 mM [4, 8]: 41%

Compound: O=C(Nc1ccc2cc1CCc1cccc(c1)Nc1ncc(Cl)c(n1)N2)N[C@H]1CCN(Cc2ccccc2)C1 [Example B173, N-[(3S)-1-Benzylpyrrolidin-3-yl]-N′-[6-chloro-2,4,8,22-tetraazatetracyclo[14.3.1.1(3,7).1(9,13)]docosa-1(20),3(22),4,6,9(21),10,12,16,18-nonaen-12-yl]urea bis(trifluoroacetate)]
- IC50 ([1]; Table B1): 23 nM
- IC50 ([2]; Table B1): 3.5 nM
- IC50 ([3]; Table B1): 163 nM
- IC50 (TYK2; Table B1): 55 nM
- ALK % of inhibition at a concentration of 500 nM or 1 mM [4, 9]: 14%

Compound: CCNC(=O)N1CCCC(C(=O)Nc2ccc3cc2CCc2cccc(c2)Nc2ncc(Cl)c(n2)N3)C1 (stereo not drawn) [Example A49, N(3)-[6-Chloro-2,4,8,22-tetraazatetracyclo[14.3.1.1(3,7).1(9,13)]docosa-1(20),3(22),4,6,9(21),10,12,16,18-nonaen-12-yl]-N(1)-ethylpiperidine-1,3-dicarboxamide trifluoroacetate]
- IC50 [1, 5]: 7.5 nM
- IC50 [2, 6]: 14 nM
- IC50 [3, 7]: 11 nM
- IC50 (TYK2): 39 nM
- ALK % of inhibition at a concentration of 500 nM or 1 mM [4, 8]: 24%

Compound: CC(=O)N1CCN(Cc2ccc3cc2CCc2cccc(c2)Nc2ncc(Cl)c(n2)N3)CC1 [Example B225, 12-[(4-Acetylpiperazin-1-yl)methyl]-6-chloro-2,4,8,22-tetraazatetracyclo[14.3.1.1(3,7).1(9,13)]docosa-1(20),3(22),4,6,9(21),10,12,16,18-nonaene bis(trifluoroacetate)]
- IC50 ([1]; Table B1): 10 nM
- IC50 ([2]; Table B1): 31 nM
- IC50 ([3]; Table B1): 37 nM
- IC50 (TYK2; Table B1): 46 nM
- ALK % of inhibition at a concentration of 500 nM or 1 mM [4, 9]: 27%
